Measurements published in patent publication US20240182785A1, “COMPOUND, COMPOSITION, CURED PRODUCT, OPTICALLY ANISOTROPIC BODY, OPTICAL ELEMENT, AND LIGHT GUIDE ELEMENT” (FUJIFILM Corporation, priority 2021, published 2024).

Assays:
Assay type in all cases: physicochemical
[1] = Evaluation of liquid crystallinity (hot stage, polarization microscope); design: key: A case of having liquid crystallinity was evaluated as A; a case of having no liquid crystallinity was evaluated as B; settings: heated on a hot stage
Description: The respective compounds (the compounds A-1 to A-11 and the compounds B-1 and B-2) were heated on a hot stage and observed with a polarization microscope, and the phase transition temperature was measured to evaluate the presence or absence of the liquid crystallinity. A case of having liquid crystallinity was evaluated as A, and a case of having no liquid crystallinity was evaluated as B. The results are shown in Table 1.
Since the compound A-8 has melting points of 200° C. or higher and undergoes a polymerization reaction during heating, liquid crystallinity could not be evaluated.

[2] = Evaluation of durability of optically anisotropic layer (moisture-heat resistance test); settings: rate of change in Re of cured layer (25 parts compound, 75 parts L-1), 136 hours at 100° C., humidity 95%
Description: (§1) As shown below, the light resistance and the durability of the optically anisotropic layer produced using the composition containing each of the compounds A-1 to A-11 and the compounds B-1 and B-2 were evaluated.
(§2) A coating liquid having the following composition was prepared and applied by spin-coating, onto a rubbing-treated glass attached with an alignment film. Each composition was irradiated with ultraviolet rays of 300 mJ/cm^2 through a filter that cuts light having a wavelength of 350 nm or less on a hot plate which had been heated to a temperature at which a nematic phase is shown, whereby an optically anisotropic layer for a light resistance/durability test was produced.
(§3) The polymerizable liquid crystal compound L-1 is a mixture obtained by mixing at a
(§4) ratio of the following L-1-1/L-1-2/L-1-3=84/14/2 (in terms of mass ratio).
(§5) Rate of change in Re (%)=[100×{|(Re after test)−(Re before test)|}/(Re before test)]
(§6) Re was measured with Axoscan manufactured by Axometrics Inc. at a wavelength of 550 nm, and the measurement temperature was set to room temperature.
The produced optically anisotropic layer was allowed to be left for 136 hours at 100° C. and a humidity of 95%, whereby a moisture-heat resistance test was carried out. The rate of change in Re before and after the durability test was evaluated, the durability in a case where the rate of change in Re was less than 10% was evaluated as A, and the durability in a case where the rate of change in Re was 10% or more was evaluated as B. The smaller the rate of change in Re, the more excellent the durability.

[3] = Measurement of Δn (refractive index anisotropy), wedge-shaped liquid crystal cell; settings: 550 nm, 30° C. or lower limit temperature of nematic phase +0 to 10° C.; some compounds extrapolated from 1/2 mixture with L-1-1
Description: The Δn of each of the compounds (the compounds A-1 to A-11 and the compounds B-1 and B-2), which are the compounds to be measured, was measured by a method using a wedge-shaped liquid crystal cell described on page 202 in the Liquid crystal handbook (edited by the liquid crystal handbook editorial board, published by Maruzen Co., Ltd., 2000). Δn was defined as a measured value at a wavelength of 550 nm at 30° C. or the lower limit temperature of the nematic phase +0° C. to 10° C. In a case of a compound which is liable to crystallize or a compound having no liquid crystallinity, evaluation was carried out using a mixture thereof with the other liquid crystal compound, and Δn was estimated from the extrapolated value of the measured value thereof. The following L-1-1 was used as the other liquid crystal compound. As the above mixture, a mixture obtained by mixing at a ratio of the compound to be measured/the L-1-1=1/2 (in terms of mass ratio) was used.
A case where Δn was 0.40 or more was evaluated as A, a case where Δn was 0.35 or more and less than 0.40 was evaluated as B, a case where Δn was 0.30 or more and less than 0.35 was evaluated as C, and a case where Δn was less than 0.30 was evaluated as D. The results are shown in Table 1.

[4] = Evaluation of light resistance of optically anisotropic layer (Super Xenon Weather Meter); settings: rate of change in Re of cured layer (25 parts compound, 75 parts L-1), 5 million lx, 50 hours, 63° C., 50% RH, oxygen-blocking
Description: as §1, §2, §3, §4
The produced optically anisotropic layers for light resistance/durability tests were irradiated with light using a Super Xenon Weather Meter SX75 manufactured by Suga Test Instruments Co., Ltd. Using KU-1000100 manufactured by King Seisakusho Co., Ltd. as a UV cut filter, a light resistance test was carried out by irradiation with 5 million lx of light for 50 hours under an oxygen-blocking condition. The temperature of the specimen to be tested (the temperature inside the test device) was set to 63° C. The relative humidity in the test device was 50% RH.
The Re of the optically anisotropic layer before and after the light resistance test was measured, the light resistance in a case where the rate of change in Re described below was less than 10% was evaluated as A, and the light resistance in a case where the rate of change in Re was 10% or more was evaluated as B. The smaller the rate of change in Re, the more excellent the light resistance.
as §5, §6

[5] = Evaluation of solubility in cyclopentanone; settings: precipitation concentration in cyclopentanone at 25° C.
Description: The solubility of each of the compounds (the compounds A-1 to A-11 and the compounds B-1 and B-2) in cyclopentanone was evaluated.

| SMILES | Liquid crystallinity [1] | Durability [2] | Δn [3] | Light resistance [4] | Solubility [5] |
| --- | --- | --- | --- | --- | --- |
| C=CC(=O)OCCc1ccc(C#Cc2ccc(-c3ccc(COc4ccc(C#Cc5ccc(CCOC(=O)C=C)cc5)cc4C(=O)OC)cc3)cc2)cc1 [Compound A-1] | A | A (the durability in a case where the rate of change in Re was less than 10% was evaluated as A) | B (a case where Δn was 0.35 or more and less than 0.40 was evaluated as B) | A (the light resistance in a case where the rate of change in Re described below was less than 10% was evaluated as A) | A (the solubility in a case where the precipitation concentration was 5% by mass or more was evaluated as A) |
| C=CC(=O)OCCSc1ccc(C#Cc2ccc(OCc3ccc4cc(C#Cc5ccc(SCCOC(=O)C=C)cc5)ccc4c3)c(C(=O)OC)c2)cc1 [Compound A-2] | A | A (the durability in a case where the rate of change in Re was less than 10% was evaluated as A) | A (A case where Δn was 0.40 or more was evaluated as A) | A (the light resistance in a case where the rate of change in Re described below was less than 10% was evaluated as A) | A (the solubility in a case where the precipitation concentration was 5% by mass or more was evaluated as A) |
| C=CC(=O)OCCSc1ccc(C#Cc2ccc(OCc3ccc4cc(C#Cc5ccc(SCCOC(=O)C=C)cc5)ccc4c3)c(C(=O)OCC)c2)cc1 [Compound A-3] | A | A (the durability in a case where the rate of change in Re was less than 10% was evaluated as A) | A (A case where Δn was 0.40 or more was evaluated as A) | A (the light resistance in a case where the rate of change in Re described below was less than 10% was evaluated as A) | A (the solubility in a case where the precipitation concentration was 5% by mass or more was evaluated as A) |
| C=CC(=O)OCCSc1ccc(C#Cc2cc(C)c(OCc3ccc4cc(C#Cc5ccc(SCCOC(=O)C=C)cc5)ccc4c3)c(C)c2)cc1 [Compound A-4] | A | A (the durability in a case where the rate of change in Re was less than 10% was evaluated as A) | A (A case where Δn was 0.40 or more was evaluated as A) | A (the light resistance in a case where the rate of change in Re described below was less than 10% was evaluated as A) | A (the solubility in a case where the precipitation concentration was 5% by mass or more was evaluated as A) |
| C=CC(=O)OCCSc1ccc(C#Cc2ccc(-c3ccc(COc4ccc(C#Cc5ccc(SCCOC(=O)C=C)cc5)cc4C(=O)OC)cc3)cc2)cc1 [Compound A-6] | A | A (the durability in a case where the rate of change in Re was less than 10% was evaluated as A) | A (A case where Δn was 0.40 or more was evaluated as A) | A (the light resistance in a case where the rate of change in Re described below was less than 10% was evaluated as A) | A (the solubility in a case where the precipitation concentration was 5% by mass or more was evaluated as A) |
| COC(=O)c1cc(C#Cc2ccc(CCOC(C)=O)cc2)ccc1OCc1ccc(-c2ccc(C#Cc3ccc(CCOC(C)=O)cc3)cc2)cc1 [Compound A-7] | A | B (the durability in a case where the rate of change in Re was 10% or more was evaluated as B) | B (a case where Δn was 0.35 or more and less than 0.40 was evaluated as B) | A (the light resistance in a case where the rate of change in Re described below was less than 10% was evaluated as A) | A (the solubility in a case where the precipitation concentration was 5% by mass or more was evaluated as A) |
| C=CC(=O)OCCSc1ccc(C#Cc2ccc(OCc3ccc4cc(C#Cc5ccc(SCCOC(=O)C=C)cc5)ccc4c3)cc2)cc1 [Compound A-8] |  | A (the durability in a case where the rate of change in Re was less than 10% was evaluated as A) | A (A case where Δn was 0.40 or more was evaluated as A) | A (the light resistance in a case where the rate of change in Re described below was less than 10% was evaluated as A) | B (the solubility in a case where the precipitation concentration was less than 5% by mass was evaluated as B) |
| C=CC(=O)OCCCCSc1nc2ccc(C#Cc3ccc(OCc4ccc5cc(C#Cc6ccc7nc(SCCCCOC(=O)C=C)sc7c6)ccc5c4)c(C(=O)OC)c3)cc2s1 [Compound A-9] | A | A (the durability in a case where the rate of change in Re was less than 10% was evaluated as A) | A (A case where Δn was 0.40 or more was evaluated as A) | B (the light resistance in a case where the rate of change in Re was 10% or more was evaluated as B) | B (the solubility in a case where the precipitation concentration was less than 5% by mass was evaluated as B) |
| C=CC(=O)OCCSc1ccc(C#Cc2ccc(OC(=O)c3ccc4cc(C#Cc5ccc(SCCOC(=O)C=C)cc5)ccc4c3)c(C(=O)OC)c2)cc1 [Compound A-10] | A | A (the durability in a case where the rate of change in Re was less than 10% was evaluated as A) | A (A case where Δn was 0.40 or more was evaluated as A) | B (the light resistance in a case where the rate of change in Re was 10% or more was evaluated as B) | A (the solubility in a case where the precipitation concentration was 5% by mass or more was evaluated as A) |
| C=CC(=O)OCCc1ccc(C#Cc2ccc(OCc3ccc4cc(C#Cc5ccc(CCOC(=O)C=C)cc5)ccc4c3)c(C(=O)OC)c2)cc1 [Compound A-11] | A | A (the durability in a case where the rate of change in Re was less than 10% was evaluated as A) | B (a case where Δn was 0.35 or more and less than 0.40 was evaluated as B) | A (the light resistance in a case where the rate of change in Re described below was less than 10% was evaluated as A) | A (the solubility in a case where the precipitation concentration was 5% by mass or more was evaluated as A) |
| CC(=O)OCCCCCCCCCCOc1ccc(C#Cc2ccc(OC(=O)c3ccc(C#Cc4ccc(OCCCCCCCCCCOC(C)=O)c(F)c4)cc3)cc2)cc1F [Compound B-1, reference compound] | A | A (the durability in a case where the rate of change in Re was less than 10% was evaluated as A) | D (a case where Δn was less than 0.30 was evaluated as D) | B (the light resistance in a case where the rate of change in Re was 10% or more was evaluated as B) | A (the solubility in a case where the precipitation concentration was 5% by mass or more was evaluated as A) |
